# Results reported in patent publication US8367695B2, “Condensed tetrahydroquinoline derivative and use thereof for medical purposes” (Mitsubishi Tanabe Pharma Corporation, priority 2007, dated 2013).
# Biological target: T1, human recombinant glucocorticoids receptor (GR) (Homo sapiens, UniProt P04150)
# T1 sequence (P04150 1-777): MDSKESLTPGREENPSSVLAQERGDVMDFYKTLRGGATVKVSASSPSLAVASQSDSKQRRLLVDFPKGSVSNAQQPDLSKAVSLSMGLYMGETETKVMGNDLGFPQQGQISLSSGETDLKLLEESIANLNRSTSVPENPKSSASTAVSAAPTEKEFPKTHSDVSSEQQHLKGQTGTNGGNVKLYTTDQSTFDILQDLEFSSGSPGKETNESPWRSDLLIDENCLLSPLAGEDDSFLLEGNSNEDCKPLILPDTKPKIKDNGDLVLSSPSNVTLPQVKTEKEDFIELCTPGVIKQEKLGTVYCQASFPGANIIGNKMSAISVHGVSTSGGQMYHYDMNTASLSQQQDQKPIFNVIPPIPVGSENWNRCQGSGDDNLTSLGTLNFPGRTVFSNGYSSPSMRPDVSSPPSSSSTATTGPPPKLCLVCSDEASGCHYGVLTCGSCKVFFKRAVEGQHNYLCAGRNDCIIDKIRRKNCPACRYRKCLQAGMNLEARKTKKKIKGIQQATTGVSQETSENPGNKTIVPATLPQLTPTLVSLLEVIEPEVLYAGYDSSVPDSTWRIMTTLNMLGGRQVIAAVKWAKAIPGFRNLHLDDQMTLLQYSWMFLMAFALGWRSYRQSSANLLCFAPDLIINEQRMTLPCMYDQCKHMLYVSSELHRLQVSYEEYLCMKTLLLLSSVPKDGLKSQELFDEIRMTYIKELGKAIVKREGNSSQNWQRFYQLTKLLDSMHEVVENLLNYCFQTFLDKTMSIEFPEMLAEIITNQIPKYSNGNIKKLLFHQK
# Experiment: Radioactive ligand binding test, GR cytosol, [3H]-Dex
# Conditions: [3H]-Dex about 5 nM, GR cytosol, 4° C.; Cheng-Prusoff, Kd about 3.1 nM; read-out: GR (Ki: nM)
# Method: Radioactive Ligand Binding Test Using Cytosols of Human Glucocorticoids Receptor, Progesterone Receptor and Mineralocorticoid Receptor
# Opthalmol. Vis. […] In brief, cytosol preparations of human recombinant glucocorticoids receptor (GR) and human recombinant progesterone receptor-B (PRB) were purchased from Invitrogen (Carlsbad, Calif.), and a cytosol preparation of human recombinant mineralocorticoid receptor (MR) was prepared by our company (Yokohama, JP). MR cDNA was cloned into a baculovirus expression vector and expressed in insect cell Sf9. […] [^3H]-Dexamethasone (Dex, specific activity 91.0 Ci/mmol) was purchased from GE Healthcare (Buckinghamshire, UK), and [^3H]-progesterone (Prog, specific activity 103 Ci/mmol) and [3H]-aldosterone (Ald, specific activity 87.9 Ci/mmol) were each purchased from PerkinElmer (Boston, Mass.). Polypropylene round-bottomed 96 well plate was obtained from ABgene (Epsom, UK). Dimethyl Sulfoxide (DMSO) and hydrochloric acid were obtained from Kanto Chemical (TOKYO, JP). Trizma Base (Tris), Bovine Serum Albumin (BSA) and Sodium tungstate dihydrate were obtained from Sigma Chemicals (St. Louis, Mo.). Dithiothreitol (DTT) and Dextran 70 were obtained from GE Healthcare (Buckinghamshire, UK). Glycerol was obtained from Junsei Chemical (TOKYO, JP). Norit® “SX-II” was obtained from Wako Pure Chemical Industries, Ltd. (Osaka, JP). MeltiLex™, A, Printed Filtermat A and Sample Bag were obtained from PerkinElmer (Boston, Mass.).
# As a buffer for GR binding assay, 25 mM Tris-HCl (4° C., pH 7.4)/1 mM EDTA·2Na/1 mM DTT/0.1% BSA was prepared and used. As buffers for PRB and MR binding assay, 10 mM Tris-HCl (4° C., pH 7.4)/1 mM DTT/0.1% BSA/10% glycerol and 20 mM Tris-HCl (4° C., pH 7.4)/1 mM EDTA·2Na/10% glycerol/20 mM sodium tungstate were respectively prepared and used.
# Compound storage solutions (5-20 mM) were prepared using DMSO. The storage solutions were diluted with DMSO to 0.1 mM (for GR) and 0.3 mM (for PRB and MR), and further diluted 20-fold with distilled water to give solutions. Then, the preparations were diluted to each concentration with 5% DMSO solution. 1% DMSO was present at the time of the binding assay.
# GR, PRB and MR binding reactions were performed in 96 well plate (ABgene). In the case of GR binding assay, [^3H]-Dex (about 5 nM), GR cytosol (concentration of function receptor: about 4 pmol/mL), a test compound and a binding buffer were mixed in a total volume of 50 μL, and the mixture was stood at 4° C. for 30 min or longer. A specific binding was defined to be the difference in the [^3H]-Dex binding between the presence and the absence of 1 μM unlabeled Dex.
# After the reaction, 50 μL of DCC was added to each well and blended. Thereafter, the mixture was stood at 4° C. for 10 min. The plate was applied to high-speed cooling centrifuge under the conditions of 4° C., 2000 rpm, 5 min to perform B/F separation. A given amount of the supernatant was recovered, which was spotted on Filtermat A of 96 well format (PerkinElmer) and rapidly dried at a high temperature.
# Measurement of Inhibition Constant (Ki)
# Ki of the test compound was determined by the following Cheng-Prusoff equation: Ki=IC50/(1+[L*]/Kd) • wherein L* is a concentration of radioactive ligand and Kd is a dissociation constant for radioactive ligand determined by saturation analysis.
row,SMILES,Ki
1,"CC1(C)Nc2c(cc(-c3cccc4ncccc34)c3occc23)C(C)(C)C1=O [Example 101, 2,2,4,4-tetramethyl-6-(quinolin-5-yl)-1,2,3,4-tetrahydro-furo [2,3-h]quinolin-3-one]",35 nM
2,"CC1(C)Nc2c(cc(-c3ccnc4ncccc34)c3occc23)C(C)(C)C1=O [Example 102, 2,2,4,4-tetramethyl-6-([1,8]naphthyridin-4-yl)-1,2,3,4-tetrahydro-furo[2,3-h]quinolin-3-one]",66 nM
3,"Cc1noc(C)c1-c1cc2c(c3c1C(=O)CC3)NC(C)(C)C(=O)C2(C)C [Example 104, 6-(3,5-dimethylisoxazol-4-yl)-2,2,4,4-tetramethyl-2,3,4,7,8,9-hexahydro-1H-cyclopenta[h]quinoline-3,7-dione]",60 nM
